* marks the point of attachment. Myristoyl = CCCCCCCCCCCCCC(=O)*
T1: NgR1 (Homo sapiens, UniProt Q9BZR6, S281D)
T1 construct: The cDNAs of NgR1 (NM 023004, Nt. 184-1543); expressed in transfected cells; host or cells: COS7
T1 sequence (Q9BZR6 27-447 S281D): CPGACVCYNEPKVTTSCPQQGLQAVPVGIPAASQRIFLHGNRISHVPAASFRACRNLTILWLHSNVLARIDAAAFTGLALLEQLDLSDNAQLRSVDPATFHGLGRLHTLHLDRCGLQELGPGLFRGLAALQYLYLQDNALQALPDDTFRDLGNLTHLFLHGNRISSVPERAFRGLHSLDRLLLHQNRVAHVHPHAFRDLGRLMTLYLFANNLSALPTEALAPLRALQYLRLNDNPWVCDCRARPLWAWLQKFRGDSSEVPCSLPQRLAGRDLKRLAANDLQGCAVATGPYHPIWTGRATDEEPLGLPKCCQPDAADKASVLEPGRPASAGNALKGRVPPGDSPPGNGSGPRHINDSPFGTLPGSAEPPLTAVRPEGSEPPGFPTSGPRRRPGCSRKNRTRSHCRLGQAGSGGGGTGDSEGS


What was measured:
NgR1 [1] = assay: Phosphorylation of endogenous NgR1 (upper band, immunoblotting) in RA-treated SH-SY5Y cells; type: cell-based, human; settings: incubated with BDNF in the presence of kinase inhibitor, 24 hours
Experimental: FIG. 1. BDNF promotes neurite outgrowth of RA-treated SH-SY5Y, and induces phosphorylation of NgR1. (A) SH-SY5Y cells were incubated with indicated reagents. Cell images were taken with phase contrast microscopy. (B) Number of cells extending neurite-like structures of more than 40 μm and total cell number were counted from images taken in (A). More than 300 cells were examined in each sample. The proportion of cells extending neurite-like structures of more than 40 μm was indicated as a percentage of total cell number. An average of three experiments is shown. Error bars indicate S. E. between experiments. Data were analysed with student's t test. (C) Whole cell extracts were prepared from RA-treated SH-SY5Y cells after incubation with or without BDNF for 24 hours, and were analysed by SDS-PAGE. Immunoblotting was performed with the indicated antibodies. (D) Whole cell extract prepared from cells treated with both RA and BDNF was incubated with the indicated reagents for 1 hour at 37° C. Immunoblotting was performed with anti-NgR1 antibody. (E) RA-treated SH-SY5Y cells were incubated with BDNF in the presence or absence of one of the following: PKC inhibitor—500 nM Gö6983 or Gö6976; PKA inhibitor—2 μM KT5720 or a PKA inhibitor peptide 14-22; or either 500 nM or 1 μM of a casein kinase inhibitor, for 24 hours. Whole cell extracts prepared from these cells were analysed by SDS-PAGE. Immunoblotting was performed with anti-NgR1 antibody.
SH-SY5Y cells were cultured in Ham's F12 medium with 10% foetal bovine serum at 37° C. in 5% CO2 and 95% air. Passage numbers between 15 and 21 were used in experiments described in this paper. Further passages induce spontaneous differentiation and cells tend to extend neurites without BDNF (data not shown). For RA treatment, the cells are seeded (20,000 cells/well) on collagen IV coated 4 well chamber slides. After 24 hours culture, medium was changed to Ham's F12 medium containing 10 μM RA and 10% foetal bovine serum. Medium was changed to fresh medium on day 3 and cells were used for experiments after 5 days culture. Encinas et al. (18) reported that RA-treated SH-SY5Y cells initiate apoptosis after withdrawal of serum only when the cells are cultured at low density. The cell density used in this paper was higher than that in the paper by Encinas et al. (18) and cell death due to depletion of serum or BDNF was not significant. In this paper, the SH-SY5Y cells treated with RA for 5 days are called RA-treated SH-SY5Y. For BDNF treatment, the RA-treated SH-SY5Y cells were washed with serum-free Ham's F12 medium and incubated with 25 ng/ml BDNF in serum-free Ham's F12 medium for 24 hours. As a control (RA alone), the RA-treated SH-SY5Y cells were incubated with serum-free Ham's F12 alone for 24 hours.
Cells were scraped off from dishes and washed with PBS twice, and then resuspended in PBS containing 0.1% Triton X100 and phosphatase inhibitor cocktail (Roche) and EDTA-free protease inhibitor cocktail (Roche). After incubation for 15 min on ice, samples were centrifuged at 14,000×g for 20 min at 4° C. The supernatants containing 30 μg of proteins were analysed by SDS-PAGE and blotted to PVDF membrane. The PVDF membrane was incubated in blocking buffer (5% skimmed milk, 0.4% Triton X-100 in PBS) for 1 hour, first antibody diluted in the blocking buffer and appropriate secondary antibody labelled with horse radish peroxidase. Bound antibodies were visualised with ECL or ECL Plus kit (GE healthcare).

NgR1 [2] = target: T1, NgR1; assay: Binding of OMgp to COS7 cells over-expressing NgR1; settings: 281S/D mutant NgR1
Experimental: (§1) FIG. 3. CK2 phosphorylates NgR1, and inhibits binding of the myelin-associated proteins to NgR1. (A) Myc-tagged wild type, 281S/A or 281S/D mutant NgR1 were over-expressed in COS7 cells. The over-expressed cells were incubated with either the combination of ATP and CK2, or NEP1-40 for 30 min at 37° C. After washing with PBS, cells were incubated with Hisx6-tagged Nogo-GFP for 3 hours at 4° C. The cells were fixed and immunofluorescence was performed with anti-Myc and anti-GFP antibodies. (B) COS7 cells over-expressing Myc-tagged wild type NgR1 were treated as described in (A). Proteins were extracted and the Myc-tagged NgR1 was immunoprecipitated with anti-Myc antibody. Co-precipitated Hisx6-tagged Nogo-GFP was detected by anti-GFP antibody. […] The biotinylated proteins were fractionated and analysed by SDS-PAGE. Biotinylated NgR1-Myc was detected with anti-Myc. antibody. […] Myc-tagged proteins were immunoprecipitated and analysed with SDS-PAGE. […]
(§2) After treatment with or without CK2, COS7 cells over-expressing wild type or mutant NgR were incubated with Hisx6 tagged Nogo-GFP (10 μg/ml), HA-MAG (50 μg/ml) or Hisx6 tagged OMgp (10 μg/ml) in PBS for 3 hours at 4° C. […] Biotinylated proteins were precipitated with streptavidin beads and were analysed by SDS-PAGE. Each sample fractionated from 5×10^6 cells was analysed by SDS-PAGE.

NgR1 [3] = target: T1, NgR1; assay: Binding of MAG to COS7 cells over-expressing NgR1; settings: 281S/D mutant NgR1
Experimental: as §1, §2

Molecule | level of the upper band of NgR1 (NgR1 [1]) | also measured
Cn1c2ccccc2c2c3c(c4c5ccccc5n(CCC#N)c4c21)CNC3=O [Gö6976] | Neither PKC inhibitors Gö6983 and Gö6976, nor PKA inhibitors KT 5720 and a PKA inhibitor peptide, show effects | –
PKA inhibitor peptide: myristoylated PKA inhibitor peptide 14-22 amide, purchased from Merck (Myristoyl-SGRTGRRNA-NH2; SMILES CCCCCCCCCCCCCC(=O)N[C@@H](CO)C(=O)NCC(=O)N[C@@H](CCCNC(=N)N)C(=O)N[C@H](C(=O)NCC(=O)N[C@@H](CCCNC(=N)N)C(=O)N[C@@H](CCCNC(=N)N)C(=O)N[C@@H](CC(N)=O)C(=O)N[C@@H](C)C(N)=O)[C@@H](C)O; UniProt P61925 14-22, looked up, fragment) | Neither PKC inhibitors Gö6983 and Gö6976, nor PKA inhibitors KT 5720 and a PKA inhibitor peptide, show effects | –
Brc1c(Br)c(Br)c2[nH]nnc2c1Br [CK2 inhibitor, 4,5,6,7-Tetrabromo-2-azabenzimidazole] | decreased the upper band | –
CCCCCCOC(=O)[C@]1(O)C[C@@H]2O[C@@]1(C)n1c3ccccc3c3c4c(c5c6ccccc6n2c5c31)C(=O)NC4 [KT 5720] | Neither PKC inhibitors Gö6983 and Gö6976, nor PKA inhibitors KT 5720 and a PKA inhibitor peptide, show effects | –
COc1ccc2c(c1)c(C1=C(c3c[nH]c4ccccc34)C(=O)NC1=O)cn2CCCN(C)C [Gö6983] | Neither PKC inhibitors Gö6983 and Gö6976, nor PKA inhibitors KT 5720 and a PKA inhibitor peptide, show effects | –
OMgp: oligodendrocyte myelin glycoprotein, His-tagged, purchased from R&D (protein, UniProt P23515 25-417, looked up, His tag, oligodendrocyte myelin glycoprotein, His-tagged, purchased from R&D) Oligodendrocyte-myelin …: ICPLQCICTERHRHVDCSGRNLSTLPSGLQENIIHLNLSYNHFTDLHNQLTQYTNLRTLDISNNRLESLPAHLPRSLWNMSAANNNIKLLDKSDTAYQWNLKYLDVSKNMLEKVVLIKNTLRSLEVLNLSSNKLWTVPTNMPSKLHIVDLSNNSLTQILPGTLINLTNLTHLYLHNNKFTFIPDQSFDQLFQLQEITLYNNRWSCDHKQNITYLLKWMMETKAHVIGTPCSTQISSLKEHNMYPTPSGFTSSLFTVSGMQTVDTINSLSVVTQPKVTKIPKQYRTKETTFGATLSKDTTFTSTDKAFVPYPEDTSTETINSHEAAAATLTIHLQDGMVTNTSLTSSTKSSPTPMTLSITSGMPNNFSEMPQQSTTLNLWREETTTNVKTPLPS | – | binding of ligand to cells (NgR1 [2]): Neither OMgp nor MAG bound
MAG: human myelin-associated glycoprotein, HA-tagged, purified from COS7 conditioned medium (protein) GHWGAWMPSSISAFEGTCVSIPCRFDFPDELRPAVVHGVWYFNSPYPKNYPPVVFKSRTQVVHESFQGRSRLLGDLGLRNCTLLLSNVSPELGGKYYFRGDLGGYNQYTFSEHSVLDIVNTPNIVVPPEVVAGTEVEVSCMVPDNCPELRPELSWLGHEGLGEPAVLGRLREDEGTWVQVSLLHFVPTREANGHRLGCQASFPNTTLQFEGYASMDVKYPPVIVEMNSSVEAIEGSHVSLLCGADSNPPPLLTWMRDGTVLREAVAESLLLELEEVTPAEDGVYACLAENAYGQDNRTVGLSVMYAPWKPTVNGTMVAVEGETVSILCSTQSNPDPILTIFKEKQILSTVIYESELQLELPAVSPEDDGEYWCVAENQYGQRATAFNLSVEFAPVLLLESHCAAARDTVQCLCVVKSNPEPSVAFELPSRNVTVNESEREFVYSERSGLVLTSILTLRGQAQAPPRVICTARNLYGAKSLELPFQG | – | binding of ligand to cells (NgR1 [3]): Neither OMgp nor MAG bound

Source: patent publication US9089565B2, “Compositions and methods for causing neurite outgrowth” (MEDICAL RESEARCH COUNCIL, priority 2009, dated 2015)
